Test results published in patent US8158605B2, “Azacytidine analogues and uses thereof” (Mount Sinai School of Medicine, priority 2007, dated 2012).

How the values were obtained:
K562 = assay: WST-1 cytotoxicity assay; assay type: cell-based; settings: Homo sapiens
Method: (§1) Human promyelocytic leukemia cell lines HL60, human histiocytic lymphoma U937, human chronic myelogenous leukemia K562, human acute T cell Jurkat, breast adenocarcinoma MCF-7, urinary bladder carcinoma 5637, prostate carcinoma DU-145 were purchased from American Type Culture Collection. All cell lines except Jurkat were maintained in RPMI 1640 medium (Gibco, Glasgow, UK) supplemented with 10% heat-inactivated fetal calf serum (FCS), 100 U/ml of penicillin, and […] streptomycin, in an atmosphere of 5% CO2 at 37° C. Jurkat cells were cultured in RPMI 1640 medium supplemented with 1.5 g/L sodium bicarbonate, 4.5 g/L glucose, 10 mM sodium pyruvate, and 10% FCS, 100 U/ml of penicillin, and […] streptomycin.
(§2) MCF-7, DU-145, and 5637 cells (1×10^4/ml) were plated and allowed to adhere and spread for 24 hours. […] Cultures were incubated with WST-1 reagent for 1 hour. The production of formazan was measured by a microplate reader (Bio-Tek Instruments, Elx 800) at 450 nm with a reference wavelength of 650 nm. Growth inhibition was determined as compared to untreated cells (%). IC50 values were calculated using CalcuSyn software (Biosoft).

DU145 = assay: WST-1 cytotoxicity assay; assay type: cell-based; settings: Homo sapiens, DU-145
Method: as §1, §2

Jurkat = assay: WST-1 cytotoxicity assay; assay type: cell-based; settings: Homo sapiens
Method: as §1, §2

MCF-7 = assay: WST-1 cytotoxicity assay; assay type: cell-based; settings: Homo sapiens, MCF7
Method: as §1, §2

5637 = assay: WST-1 cytotoxicity assay; assay type: cell-based
Method: as §1, §2

HL60 = assay: WST-1 cytotoxicity assay; assay type: cell-based; settings: Homo sapiens, HL-60
Method: as §1, §2

U937 = assay: WST-1 cytotoxicity assay; assay type: cell-based; settings: Homo sapiens, U-937
Method: as §1, §2

[1] = system: U937, HL60 and K562 cells; assay: Differentiating induction (NBT reduction, benzidine staining); assay type: cell-based, human; settings: repeated exposure for 11 (HL60) or 14 (U937, K562) days
Method: Cell differentiation was studied in terms of morphology. […] After initial treatment on day 0, cells were exposed to the new portions of drugs on day 4, 7, and 10. The differentiation was evaluated by NBT reduction assay (U937 and HL60) or by benzidine staining (K562).

estrogen receptor beta = assay: Gene expression of estrogen receptor β by real-time PCR in MCF-7 cells; assay type: cell-based; settings: MCF-7, 1 μM, 5 days
Method: The gene expression (determined on RNA level) of estrogen receptor beta was determined by quantitative real-time PCR. (TaqMan). MCF-7 mammary carcinoma cells were grown in estrogen deficient media (Phenol-Red-free RPMI with 2% glutamine and 10% charcoal-dextran treated fetal calf serum). […] One untreated control was included as control. The cells were harvested after 5 days of exposure to the compounds; they were harvested by trypsination, washed and shock frozen in liquid nitrogen.
The total RNA was extracted from approximately 10^6 shock frozen MCF-7 cells. The RNA concentration and purity was measured, and RNA was transcribed into cDNA using TaqMan Reverse Trancription reagents (N808-0234). Real-time quantification was performed using standard protocols and premixed PCR reagents. The primer-probe mixes were ordered from Applied Biosystems, ER β (ID Hs00230957_ml) and housekeeping gene hydrocylmethyl-bilane synthase HMBS (ID Hs00609297_ml). Gene expression was calculated using the comparative delta-delta Ct method.

NFκB = assay: LPS stimulated NFκB luciferase reporter activity in U937 cells; assay type: cell-based, human; settings: 10 nM, LPS 1 μg/ml, 1, 3 or 6 hours, compared to DMSO treated control
Method: NFκB-luciferase reporter genes were used to determine the influence of Aza-C and 5-Aza-C-5′-elaidic acid on NFκB-induced luciferase activity in a human monocytic cell line U937, stably transfected with a luciferase reporter containing three NFκB-binding sites. The induction of NFκB was performed using lipopolysaccharide (LPS) at 1 μg/ml for 30 minutes prior to the addition of Aza-C or 5-Aza-C-5′-elaidic acid in the concentrations 10 nM to the medium. The cells were cultured in RPMI-1640 medium including 10% fetal bovine serum. Before stimulation with LPS the cells were transferred to medium containing only 2% fetal bovine serum. Luciferase activity was measured by imaging in an IVIS imaging System 100 (Xenogen Corp., USA) after 1, 3 or 6 hours. The LPS stimulation increased with time over the 6 hours followed in the DMSO treated control cells. […] Generally, a positive stimulation of NFκB as observed for azacytidine is not positive, and it is positive that the LPS stimulation is not further increased by 5′Aza-C-5′-elaidic acid.

[2] = system: MT-3/ADR resistant breast carcinoma; assay: MTT cytotoxicity; assay type: cell-based; settings: MDR1, MT-3/ADR resistant breast carcinoma (overexpress MDR-1/p-glycoprotein), 24 hours
Method: (§3) The cytotoxicity of Aza-C and 5-Aza-C-5′-elaidic acid was determined in a breast cancer cell line MT-3 and the adriablastin resistant cell line MT-3/ADR. The MT-3/ADR overexpress the MDR-1/p-glycoprotein. […] The cells were incubated for 24 hours. […] Six wells were used per test concentration. The cells were incubated with test compound for 24 hours. […] Similar activity was obtained for Aza-C and 5-Aza-C-5′-elaidic acid in the MT-3 breast carcinoma cell line, but in the MT-3/ADR resistant cell line the activity of Aza-C was lost. […] This may be of importance in the treatment of resistant cancer.

[3] = system: breast carcinoma cell line MT-3; assay: MTT cytotoxicity; assay type: cell-based; settings: MT-3 breast carcinoma, 24 hours
Method: as §3

[4] = system: Hela cervix carcinoma cells; assay: MTT cytotoxicity with or without nucleoside transport inhibitor dipyridamole; assay type: cell-based
Method: Dipyridamole was used as an inhibitor of the equilibrative nucleoside transporters hENT1 and hENT2. […] The cells were pre-incubated for 24 hours. Dipyridamole (10 μM) was added to the cells 30 minutes prior to the addition of the test compounds. […] Six wells were used per test concentration. The cells were incubated with test compound for 72 hours.

CCCCCCCC/C=C/CCCCCCCC(=O)OC[C@H]1O[C@@H](n2cnc(N)nc2=O)[C@H](O)[C@@H]1O [CP, 5-azacytidine 5′-elaidate]
IC50 (K562; K562, 24 hour treatment): 1.26 µM
IC50 (K562; K562, 48 hour treatment): 0.92 µM
IC50 (DU145; DU145, 24 hour treatment): 6.79 µM
IC50 (DU145; DU145, 48 hour treatment): 6.31 µM
IC50 (DU145; DU145, 72 hour treatment): 5.88 µM
IC50 (Jurkat; 24 hour treatment): 1.19 µM
IC50 (Jurkat; 48 hour treatment): 0.88 µM
IC50 (Jurkat; 72 hour treatment): 0.84 µM
IC50 (MCF-7; MCF-7, 24 hour treatment): 19.1 µM
IC50 (MCF-7; MCF-7, 48 hour treatment): 9.32 µM
IC50 (MCF-7; MCF-7, 72 hour treatment): 9.99 µM
IC50 (5637; 5637, 24 hour treatment): 9.39 µM
IC50 (5637; 5637, 48 hour treatment): 5.95 µM
IC50 (5637; 5637, 72 hour treatment): 3.52 µM
IC50 (HL60; HL60, 24 hour treatment): 3.19 µM
IC50 (HL60; HL60, 48 hour treatment): 3.6 µM
IC50 (HL60; HL60, 72 hour treatment): 2.68 µM
IC50 (U937; U937, 24 hour treatment): 0.44 µM
IC50 (U937; U937, 48 hour treatment): 0.6 µM
IC50 (U937; U937, 72 hour treatment): 0.87 µM
differentiation induction [1]: did not induce significant differentiation
Ct ER β (estrogen receptor beta): 32.97
delta (estrogen receptor beta): 7.06
Delta delta (estrogen receptor beta; versus untreated): −2.40
LPS stimulated NFκB luciferase activity (NFκB): did not differ from the DMSO control
IC50 [2]: 14.8 ± 12.8 µM
IC50 [3]: 17 ± 15.7 µM
cytotoxic activity increased when hENT1 and hENT2 blocked by dipyridamole ([4]; Hela, with vs without dipyridamole): 50 fold
IC50 ([4]; Homo sapiens, HeLa, 72 h, Hela with dipyridamole (10 μM), MTT): 0.23 µM
